# Measurements published in patent US20180353524A1, “CANCER TREATMENT USING 2-DEOXY-2-FLUORO-L-FUCOSE IN COMBINATION WITH A CHECKPOINT INHIBITOR” (SEATTLE GENETICS, INC., priority 2015, published 2018).
# Tested on: CMV reactive human PMBCs
# Experiment: In vitro 2FF and anti-PD1 antibody combination in human PBMCs (IFNγ, IL12p70)
# Details: 1 μg/mL anti-PD1 (Pembrolizumab) added to co-culture of 2FF matured T-cells, DCs and CMV antigen
# Description: CMV reactive human PMBCs from a CMV positive donor (Astarte™ Biologics) were thawed, plated into a 6-well plate and cultured overnight in DC media (30% DMEM 70% X-vivo+2 mM glutamax+10% ATB serum+1% PS). The following day the supernatant was collected to isolate T-cells and the adhering cells were washed in media and then replenished with 2 mL media supplemented with IL4 (100 ng/μL) and GMCSF (200 ng/μL) per well to differentiate and proliferate the adhering monocytes into DCs. The plate was incubated for 4-5 days and then cells were moved into a T25 flask. Each time the cells were passaged (every 2-3 days) new cytokines were given. The T-cells in the supernatant were isolated using StemSep human T-cell enrichment kit (Stemcell technologies). The T-cells were then resuspended in T-cell media (RPMI+10% Fetal calf serum, 1% PS) and spilt into two T25 flasks (with or without 100-200 μM 2FF). CD3CD28 antibody coated beads (Miltenyi Biotec) (20 μL/flask) were added to activate the T-cells. After 24 h IL2 was added (100 ng/μL). Each time the cells were passaged new IL2 and 2FF were added. […]
# IFNγ and IL12p70 in the supernatants from 5 day co-cultures were measured using a Lumenix assay and the concentration of each cytokine was calculated using an internal standard curve.
substance,measurement,value
"Pembrolizumab [anti-PD1, reference compound]","antigen specific response (IFNγ, IL12p70) of 2FF matured T-cells on addition of anti-PD1",further enhances the antigen specific response
